In patent US20230151025A1, “SUBSTITUTED THIAZOLOPYRIDINES, SALTS THEREOF AND THEIR USE AS HERBICIDALLY ACTIVE SUBSTANCES” (Bayer Aktiengesellschaft, priority 2020, published 2023):

What was measured:
Format in all cases: in vivo
Setaria viridis (SETVI) [1] = test: Herbicidal pre-emergence action (C), 320 g/ha; conditions: ca. 3 weeks
Outline: (§1)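 Seeds sown in sandy loam; WP or EC formulations sprayed on covering soil pre-emergence at 320 g/ha in 600 l water/ha with 0.5% additive. Greenhouse culture; damage scored visually after ca. 3 weeks versus untreated controls (0% = as control, 100% = plants dead).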

[2] = system: Echinochloa crus-galli (ECHCG); test: Herbicidal pre-emergence action (C), 320 g/ha; conditions: ca. 3 weeks
Outline: as §1

Lolium rigidum (LOLRI) [3] = test: Herbicidal pre-emergence action (C), 320 g/ha; conditions: ca. 3 weeks
Outline: as §1

Veronica persica (VERPE) [4] = test: Herbicidal pre-emergence action (C), 320 g/ha; conditions: ca. 3 weeks
Outline: as §1

[5] = system: Amaranthus retroflexus (AMARE); test: Herbicidal pre-emergence action (C), 320 g/ha; conditions: ca. 3 weeks
Outline: as §1

[6] = system: Alopecurus myosuroides (ALOMY); test: Herbicidal pre-emergence action (C), 320 g/ha; conditions: ca. 3 weeks
Outline: as §1

[7] = system: Digitaria sanguinalis (DIGSA); test: Herbicidal pre-emergence action (C), 320 g/ha; conditions: ca. 3 weeks
Outline: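 Weed and crop seeds sown in sandy loam; WP or EC formulations applied pre-emergence to the soil surface as aqueous suspension/emulsion with 0.5% additive at 600 l water/ha. Greenhouse-grown under optimum conditions; damage visually scored after ca. 3 weeks versus untreated controls (0% = as control, 100% = plants dead).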

Veronica persica (VERPE) [8] = test: Herbicidal post-emergence action (D), 320 g/ha; conditions: ca. 3 weeks
Outline: (§2)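 Visual % herbicidal effect vs untreated controls (100% = dead, 0% = like control), rated ca. 3 weeks after post-emergence spray. Plants treated at single-leaf stage, 2 to 3 weeks after sowing in sandy loam; aqueous WP/EC spray, 0.5% additive, 600 l water/ha.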

[9] = system: Amaranthus retroflexus (AMARE); test: Herbicidal post-emergence action (D), 320 g/ha; conditions: ca. 3 weeks
Outline: as §2

[10] = system: Alopecurus myosuroides (ALOMY); test: Herbicidal post-emergence action (D), 320 g/ha; conditions: ca. 3 weeks
Outline: as §2

Setaria viridis (SETVI) [11] = test: Herbicidal pre-emergence action (A), 1280 g/ha; conditions: visual grading after ca. 3 weeks vs untreated controls
Outline: (§3)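 Seeds were sown in sandy loam pots (one mono- and one dicot weed per pot) and covered with soil; WP or EC formulations were applied to the soil surface as aqueous suspension/emulsion with 0.5% additive at 600 l water/ha. Damage was scored visually after ca. 3 weeks versus untreated controls (0% = control, 100% = dead).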

[12] = system: Echinochloa crus-galli (ECHCG); test: Herbicidal pre-emergence action (A), 1280 g/ha; conditions: visual grading after ca. 3 weeks vs untreated controls, 100% = plants have died off, 0% = as control plants
Outline: as §3

Stellaria media (STEME) = test: Herbicidal pre-emergence action (A), 1280 g/ha; conditions: visual grading after ca. 3 weeks vs untreated controls
Outline: as §3

[13] = system: Kochia scoparia (KCHSC; Bassia scoparia); test: Herbicidal pre-emergence action (A), 1280 g/ha; conditions: visual grading after ca. 3 weeks vs untreated controls
Outline: as §3

Lolium rigidum (LOLRI) [14] = test: Herbicidal pre-emergence action (A), 1280 g/ha; conditions: visual grading after ca. 3 weeks vs untreated controls, 100% = plants have died off, 0% = as control plants
Outline: as §3

[15] = system: Digitaria sanguinalis (DIGSA); test: Herbicidal pre-emergence action (A), 1280 g/ha; conditions: visual grading after ca. 3 weeks vs untreated controls, 100% = plants have died off, 0% = as control plants
Outline: as §3

[16] = system: Matricaria inodora (MATIN); test: Herbicidal pre-emergence action (A), 1280 g/ha; conditions: visual grading after ca. 3 weeks vs untreated controls
Outline: as §3

Poa annua (POAAN) = test: Herbicidal pre-emergence action (A), 1280 g/ha; conditions: visual grading after ca. 3 weeks vs untreated controls, 100% = plants have died off, 0% = as control plants
Outline: as §3

Veronica persica (VERPE) [17] = test: Herbicidal pre-emergence action (A), 1280 g/ha; conditions: visual grading after ca. 3 weeks vs untreated controls
Outline: as §3

[18] = system: Amaranthus retroflexus (AMARE); test: Herbicidal pre-emergence action (A), 1280 g/ha; conditions: visual grading after ca. 3 weeks vs untreated controls
Outline: as §3

[19] = system: Alopecurus myosuroides (ALOMY); test: Herbicidal pre-emergence action (A), 1280 g/ha; conditions: visual grading after ca. 3 weeks vs untreated controls, 100% = plants have died off, 0% = as control plants
Outline: as §3

[20] = system: Polygonum convolvulus (POLCO); test: Herbicidal post-emergence action (D), 320 g/ha; conditions: ca. 3 weeks
Outline: as §2

[21] = system: Abutilon theophrasti (ABUTH); test: Herbicidal pre-emergence action (A), 1280 g/ha; conditions: visual grading after ca. 3 weeks vs untreated controls, 100% = plants have died off, 0% = as control plants
Outline: as §3

[22] = system: Echinochloa crus-galli (ECHCG); test: Herbicidal post-emergence action (D), 320 g/ha; conditions: ca. 3 weeks
Outline: as §2

Cc1cc2scnc2nc1-c1cccc(F)c1 [Example I-003, 5-(3-fluorophenyl)-6-methyl-thiazolo[4,5-b]pyridine]
herbicidal effect SETVI (Setaria viridis (SETVI) [1]): 100% | herbicidal effect ECHCG [2]: 100% | herbicidal effect LOLRI (Lolium rigidum (LOLRI) [3]): 100% | herbicidal effect VERPE (Veronica persica (VERPE) [4]): 90% | herbicidal effect AMARE [5]: 80% | herbicidal effect ALOMY [6]: 100% | herbicidal effect DIGSA [7]: 100% | herbicidal effect VERPE (Veronica persica (VERPE) [8]): 90% | herbicidal effect AMARE [9]: 80% | herbicidal effect ALOMY [10]: 90% | herbicidal effect SETVI (Setaria viridis (SETVI) [11]): 100% | ECHCG, herbicidal effect in percent (%) [12]: 100% | herbicidal effect STEME (Stellaria media (STEME)): 90% | herbicidal effect KCHSC [13]: 100% | LOLRI, herbicidal effect in percent (%) (Lolium rigidum (LOLRI) [14]): 100% | DIGSA, herbicidal effect in percent (%) [15]: 100% | herbicidal effect MATIN [16]: 90% | POAAN, herbicidal effect in percent (%) (Poa annua (POAAN)): 100% | herbicidal effect VERPE (Veronica persica (VERPE) [17]): 90% | herbicidal effect AMARE [18]: 90% | ALOMY, herbicidal effect in percent (%) [19]: 90%

CCc1cc2scnc2nc1-c1ccc(F)cc1F [Example I-030]
herbicidal effect SETVI (Setaria viridis (SETVI) [1]): 100% | herbicidal effect ECHCG [2]: 100% | herbicidal effect LOLRI (Lolium rigidum (LOLRI) [3]): 100% | herbicidal effect VERPE (Veronica persica (VERPE) [4]): 90% | herbicidal effect AMARE [5]: 90% | herbicidal effect ALOMY [6]: 100% | herbicidal effect DIGSA [7]: 100% | herbicidal effect POLCO [20]: 90% | herbicidal effect VERPE (Veronica persica (VERPE) [8]): 90% | herbicidal effect ALOMY [10]: 80% | herbicidal effect SETVI (Setaria viridis (SETVI) [11]): 100% | ECHCG, herbicidal effect in percent (%) [12]: 100% | herbicidal effect STEME (Stellaria media (STEME)): 90% | herbicidal effect KCHSC [13]: 100% | LOLRI, herbicidal effect in percent (%) (Lolium rigidum (LOLRI) [14]): 100% | DIGSA, herbicidal effect in percent (%) [15]: 90% | herbicidal effect MATIN [16]: 100% | POAAN, herbicidal effect in percent (%) (Poa annua (POAAN)): 100% | herbicidal effect VERPE (Veronica persica (VERPE) [17]): 100% | herbicidal effect AMARE [18]: 90% | ALOMY, herbicidal effect in percent (%) [19]: 100%

Fc1ccccc1-c1nc2ncsc2cc1C1CC1 [Example I-102]
herbicidal effect SETVI (Setaria viridis (SETVI) [1]): 100% | herbicidal effect ECHCG [2]: 100% | herbicidal effect LOLRI (Lolium rigidum (LOLRI) [3]): 100% | herbicidal effect VERPE (Veronica persica (VERPE) [4]): 80% | herbicidal effect AMARE [5]: 90% | herbicidal effect ALOMY [6]: 90% | herbicidal effect POLCO [20]: 80% | herbicidal effect VERPE (Veronica persica (VERPE) [8]): 80% | herbicidal effect AMARE [9]: 80% | herbicidal effect SETVI (Setaria viridis (SETVI) [11]): 100% | ECHCG, herbicidal effect in percent (%) [12]: 100% | herbicidal effect STEME (Stellaria media (STEME)): 90% | herbicidal effect KCHSC [13]: 100% | LOLRI, herbicidal effect in percent (%) (Lolium rigidum (LOLRI) [14]): 100% | DIGSA, herbicidal effect in percent (%) [15]: 100% | herbicidal effect MATIN [16]: 100% | POAAN, herbicidal effect in percent (%) (Poa annua (POAAN)): 100% | herbicidal effect VERPE (Veronica persica (VERPE) [17]): 100% | ABUTH, herbicidal effect in percent (%) [21]: 90% | herbicidal effect AMARE [18]: 90% | ALOMY, herbicidal effect in percent (%) [19]: 100%

Cc1cc2scnc2nc1-c1sccc1C [Example I-143]
herbicidal effect SETVI (Setaria viridis (SETVI) [1]): 100% | herbicidal effect ECHCG [2]: 100% | herbicidal effect LOLRI (Lolium rigidum (LOLRI) [3]): 100% | herbicidal effect VERPE (Veronica persica (VERPE) [4]): 90% | herbicidal effect AMARE [5]: 90% | herbicidal effect ALOMY [6]: 100% | herbicidal effect ECHCG [22]: 80% | herbicidal effect VERPE (Veronica persica (VERPE) [8]): 80% | herbicidal effect AMARE [9]: 80% | herbicidal effect ALOMY [10]: 90% | herbicidal effect SETVI (Setaria viridis (SETVI) [11]): 100% | ECHCG, herbicidal effect in percent (%) [12]: 100% | herbicidal effect STEME (Stellaria media (STEME)): 90% | herbicidal effect KCHSC [13]: 90% | LOLRI, herbicidal effect in percent (%) (Lolium rigidum (LOLRI) [14]): 100% | herbicidal effect MATIN [16]: 90% | POAAN, herbicidal effect in percent (%) (Poa annua (POAAN)): 100% | herbicidal effect VERPE (Veronica persica (VERPE) [17]): 100% | ABUTH, herbicidal effect in percent (%) [21]: 90% | herbicidal effect AMARE [18]: 90% | ALOMY, herbicidal effect in percent (%) [19]: 100%

Fc1ccccc1-c1nc2ncsc2cc1I [Example I-188]
herbicidal effect SETVI (Setaria viridis (SETVI) [1]): 100% | herbicidal effect ECHCG [2]: 100% | herbicidal effect LOLRI (Lolium rigidum (LOLRI) [3]): 100% | herbicidal effect VERPE (Veronica persica (VERPE) [4]): 90% | herbicidal effect AMARE [5]: 90% | herbicidal effect ALOMY [6]: 100% | herbicidal effect ECHCG [22]: 100% | herbicidal effect POLCO [20]: 80% | herbicidal effect VERPE (Veronica persica (VERPE) [8]): 90% | herbicidal effect AMARE [9]: 90% | herbicidal effect ALOMY [10]: 90% | herbicidal effect SETVI (Setaria viridis (SETVI) [11]): 100% | ECHCG, herbicidal effect in percent (%) [12]: 100% | herbicidal effect STEME (Stellaria media (STEME)): 90% | herbicidal effect KCHSC [13]: 90% | LOLRI, herbicidal effect in percent (%) (Lolium rigidum (LOLRI) [14]): 100% | herbicidal effect MATIN [16]: 90% | POAAN, herbicidal effect in percent (%) (Poa annua (POAAN)): 100% | herbicidal effect VERPE (Veronica persica (VERPE) [17]): 90% | ALOMY, herbicidal effect in percent (%) [19]: 100%

Cc1cc2scnc2nc1-c1ccsc1C [Example I-194]
herbicidal effect SETVI (Setaria viridis (SETVI) [1]): 100% | herbicidal effect ECHCG [2]: 100% | herbicidal effect LOLRI (Lolium rigidum (LOLRI) [3]): 100% | herbicidal effect VERPE (Veronica persica (VERPE) [4]): 80% | herbicidal effect AMARE [5]: 90% | herbicidal effect ALOMY [6]: 100% | herbicidal effect ECHCG [22]: 90% | herbicidal effect AMARE [9]: 80% | herbicidal effect ALOMY [10]: 90% | herbicidal effect SETVI (Setaria viridis (SETVI) [11]): 100% | ECHCG, herbicidal effect in percent (%) [12]: 100% | herbicidal effect STEME (Stellaria media (STEME)): 100% | herbicidal effect KCHSC [13]: 100% | LOLRI, herbicidal effect in percent (%) (Lolium rigidum (LOLRI) [14]): 100% | herbicidal effect MATIN [16]: 100% | POAAN, herbicidal effect in percent (%) (Poa annua (POAAN)): 100% | herbicidal effect VERPE (Veronica persica (VERPE) [17]): 100% | herbicidal effect AMARE [18]: 100% | ALOMY, herbicidal effect in percent (%) [19]: 100%
